Converted amounts (≈) assume the structure as drawn. Where two headings read alike, the source gives them in different places.
Tests used:
[1] = system: C. albicans E81022 strain; assay: Experimental systemic candidal infection model in mice; assay type: in vivo; details: peroral, 3 times every 4 hours, female ICR mice, observed until 14 days after infection
Method: A standing culture of C. albicans E81022 strain was carried out for 48 hours at 30° C. in sabouraud dextrose agar medium (SDA), the recovered fungal cells were suspended in sterilized physiological saline. By counting the fungal number on cytometry plate, the suspension was diluted to 2×10^7 cells/mL with sterilized physiological saline to serve fungal inoculum.
The fungal inoculum was used in the amounts of 0.2 mL to inoculate 4.5 to 5.5 week-old female ICR mice in the tail vein (4×10^6 cells/mouse).
From 0.5 to 1 hour after fungal inoculation, 0.2 mL of agent solution (dissolved or suspended in sterilized physiological saline containing 6.5% dimethyl sulfoxide and 3.5% Tween 80) was administered into the stomach using a peroral probe, 3 times every 4 hours. The agent concentration was 2.5 mg/kg or 10 mg/kg, and the number of animals in one group was 5 animals.
The protective effect was determined by observing life/death until 14 days after infection and calculating the mean survival days.

[2] = system: C. albicans CAF2-1 strain; assay: Anti-Candida activity, MIC measurement; assay type: cell-based; details: CAF21STRAIN, read-out: Anti-Candida Activity (minimum inhibitory concentration, MIC)
How it was run: (§1)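 C. albicans CAF2-1 was grown 48 h at 30° C. in SDB and diluted in RPMI1640 to 1.2×10^3 cells/mL. Frozen A. fumigatus Tsukuba was diluted to 4.5×10^3 cells/mL. Compounds, two-fold serially diluted in DMSO from 2.5 mg/mL, were cultured aerobically with fungi for 42-48 h at 35° C.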

[3] = system: A. fumigatus Tsukuba strain; assay: Anti-Aspergillus activity, MIC measurement; assay type: cell-based; details: RPMI1640, 42-48 hours at 35° C., visual inspection, read-out: Anti-Aspergillus Activity (minimum inhibitory concentration, MIC)
How it was run: as §1

[4] = C. albicans CAF2-1, RPMI1640, 42-48 hours at 35° C., visual inspection

Compound | Mean Survival Days ([1]; 2.5 mg/kg) [days] | Mean Survival Days ([1]; 10 mg/kg) [days] | MIC [2, 4] [µg/mL] | MIC [3] [µg/mL] | MIC [2] [µg/mL]
Nc1ncccc1-c1cc(Cc2ccc(OCc3ccccc3)cc2)no1 [Example 1, 3-(3-(4-Benzyloxy-benzyl)-isoxazol-5-yl)-pyridin-2-ylamine] | 12.2 | 14.0 | 0.2 (≈ 0.56 µM) | 0.2 (≈ 0.56 µM) | –
Nc1ncccc1-c1cc(Cc2ccc(COc3ccccn3)cc2)no1 [Example 2, 3-(3-(4-(Pyridin-2-yloxymethyl)-benzyl)-isoxazol-5-yl)-pyridin-2-ylamine] | 13.2 | 14.0 | 0.05 (≈ 0.14 µM) | 0.2 (≈ 0.558 µM) | –
Nc1ncccc1-c1cc(Cc2ccc(OCc3ccccn3)cc2)no1 [Example 9, 3-(3-(4-(Pyridin-2-ylmethoxy)-benzyl)-isoxazol-5-yl)-pyridin-2-ylamine] | 12.8 | 14.0 | 0.2 (≈ 0.558 µM) | 0.39 (≈ 1.09 µM) | –
Cc1ccnc(COc2ccc(Cc3cc(-c4cccnc4N)on3)cc2)c1 [Example 11, 3-(3-(4-(4-Methyl-pyridin-2-ylmethoxy)-benzyl)-isoxazol-5-yl)-pyridin-2-ylamine] | 8.2 | 13.6 | 0.1 (≈ 0.269 µM) | 0.39 (≈ 1.05 µM) | –
Nc1ncccc1-c1cc(Cc2ccc(SCc3ccccc3)cc2)no1 [Example 205, 3-(3-(4-Benzylsulfanyl-benzyl)-isoxazol-5-yl)-pyridin-2-ylamine] | – | – | 0.39 (≈ 1.04 µM) | 0.78 (≈ 2.09 µM) | –
Nc1ncccc1-c1cc(Cc2ccc(CSc3ccccc3)cc2)no1 [Example 206] | – | – | 0.1 (≈ 0.268 µM) | 0.39 (≈ 1.04 µM) | –
Nc1ncccc1-c1cc(Cc2ccc(Br)cc2)no1 [Example 207, 3-(3-(4-bromo-benzyl)-isoxazol-5-yl)-pyridin-2-ylamine] | – | – | 25 (≈ 75.7 µM) | 6.25 (≈ 18.9 µM) | –
Nc1ncccc1-c1cc(Cc2ccc(Cc3ccc(F)cc3)o2)no1 [Example 208, 3-(3-(5-(4-Fluoro-benzyl)-furan-2-ylmethyl)-isoxazol-5-yl)-pyridin-2-ylamine] | – | – | 6.25 (≈ 17.9 µM) | 0.78 (≈ 2.23 µM) | –
Nc1ncccc1-c1cc(Cc2ccc(Oc3ccccn3)cc2)no1 [Example 209, 3-(3-(4-(Pyridin-2-yloxy)-benzyl)-isoxazol-5-yl)-pyridin-2-ylamine] | – | – | 0.2 (≈ 0.581 µM) | 0.39 (≈ 1.13 µM) | –
Nc1ncccc1-c1cc(Cc2ccc(Cc3ccccc3)nc2)no1 [Example 210, 3-(3-(6-Benzyl-pyridin-3-ylmethyl)-isoxazol-5-yl)-pyridin-2-ylamine] | – | – | 0.1 (≈ 0.292 µM) | 0.2 (≈ 0.584 µM) | –
Nc1ccc(-c2cc(Cc3ccc(COc4ccccn4)cc3F)no2)c(N)n1 [Example 211, 3-(3-(2-Fluoro-4-(pyridin-2-yloxymethyl)-benzyl)-isoxazol-5-yl)-pyridin-2,6-diamine] | – | – | 0.39 (≈ 0.996 µM) | 0.39 (≈ 0.996 µM) | –
N#Cc1cccc(COc2ccc(Cc3cc(-c4ccc(N)nc4N)on3)cc2)c1 [Example 212, 3-(4-(5-(2,6-Diamino-pyridin-3-yl)-isoxazol-3-ylmethyl)-phenoxymethyl)benzonitrile] | – | – | 0.78 (≈ 1.96 µM) | 0.78 (≈ 1.96 µM) | –
COC(=O)c1cccc(COc2ccc(Cc3cc(-c4ccc(N)nc4N)on3)cc2)c1 [Example 213, 3-(4-(5-(2,6-Diamino-pyridin-3-yl)-isoxazol-3-ylmethyl)-phenoxymethyl)benzoic acid methyl ester] | – | – | 6.25 (≈ 14.5 µM) | 1.56 (≈ 3.62 µM) | –
C#Cc1cccc(COc2ccc(Cc3cc(-c4ccc(N)nc4N)on3)cc2)c1 [Example 214, 3-(3-(4-(3-Ethynyl-benzyloxy)-benzyl)-isoxazol-5-yl)-pyridin-2,6-diamine] | – | – | 0.39 (≈ 0.984 µM) | 0.39 (≈ 0.984 µM) | –
Nc1ccc(-c2cc(Cc3ccc(Oc4cncc(Cl)n4)cc3)no2)c(N)n1 [Example 215, 3-(3-(4-(6-Chloro-pyrazin-2-yloxy)-benzyl)-isoxazol-5-yl)-pyridin-2,6-diamine] | – | – | 0.39 (≈ 0.988 µM) | 0.78 (≈ 1.98 µM) | –
Nc1ccc(-c2cc(Cc3ccc(SCc4ccccc4)cc3)no2)c(N)n1 [Example 216, 3-(3-(4-Benzylsulfanyl-benzyl)-isoxazol-5-yl)-pyridin-2,6-diamine] | – | – | 0.39 (≈ 1 µM) | 0.39 (≈ 1 µM) | –
Nc1ccc(-c2cc(Cc3ccc(CSc4ccccc4)cc3)no2)c(N)n1 [Example 217, 3-(3-(4-Phenylsulfanylmethyl-benzyl)-isoxazol-5-yl)-pyridin-2,6-diamine] | – | – | 0.1 (≈ 0.257 µM) | 0.2 (≈ 0.515 µM) | –
CC(C)=CCOc1ccc(Cc2cc(-c3ccc(N)nc3N)on2)cc1 [Example 218, 3-(3-(4-(3-Methyl-2-but-2-enyloxy)-benzyl)-isoxazol-5-yl)-pyridin-2,6-diamine] | – | – | – | 0.1 (≈ 0.285 µM) | 0.2 (≈ 0.571 µM)
C#CCOc1ccc(Cc2cc(-c3ccc(N)nc3N)on2)cc1 [Example 219, 3-(3-(4-Prop-2-ynyloxy-benzyl)-isoxazol-5-yl)-pyridine-2,6-diamine] | – | – | 3.13 (≈ 9.77 µM) | 3.13 (≈ 9.77 µM) | –
Nc1ccc(-c2cc(Cc3ccc(Br)cc3)no2)c(N)n1 [Example 220, 3-(3-(4-Bromo-benzyl)-isoxazol-5-yl)-pyridine-2,6-diamine] | – | – | 6.25 (≈ 18.1 µM) | 6.25 (≈ 18.1 µM) | –
Nc1ccc(-c2cc(Cc3ccc(Cc4ccc(F)cc4)o3)no2)c(N)n1 [Example 221, 3-(3-(5-(4-Fluoro-benzyl)-furan-2-ylmethyl)-isoxazol-5-yl)-pyridin-2,6-diamine] | – | – | 1.56 (≈ 4.28 µM) | 0.39 (≈ 1.07 µM) | –
Nc1ccc(-c2cc(Cc3ccc(Oc4ccccn4)cc3)no2)c(N)n1 [Example 222, 3-(3-(4-(Pyridin-2-yloxy)-benzyl)-isoxazol-5-yl)-pyridin-2,6-diamine] | – | – | 0.39 (≈ 1.09 µM) | 0.39 (≈ 1.09 µM) | –
Nc1ccc(-c2cc(Cc3ccc(Cc4ccccc4)nc3)no2)c(N)n1 [Example 223, 3-(3-(6-Benzyl-pyridin-3-ylmethyl)-isoxazol-5-yl)-pyridin-2,6-diamine] | – | – | 0.39 (≈ 1.09 µM) | 0.39 (≈ 1.09 µM) | –
CNc1ccc(-c2cc(Cc3ccc(OCc4ccccc4)nc3)no2)c(N)n1 [Example 224, 3-(3-(6-Benzyloxy-pyridin-3-ylmethyl)-isoxazol-5-yl)-N^6-methyl-pyridin-2,6-diamine] | – | – | 0.39 (≈ 1.01 µM) | 0.2 (≈ 0.516 µM) | –
Nc1nc(NCCO)ccc1-c1cc(Cc2ccc(OCc3ccccc3)nc2)no1 [Example 225, 2-(6-Amino-5-(3-(6-benzyloxy-pyridin-3-ylmethyl)-isoxazol-5-yl)-pyridin-2-ylamino)-ethanol] | – | – | 0.78 (≈ 1.87 µM) | 3.13 (≈ 7.5 µM) | –
COCC(=O)Nc1ccc(-c2cc(Cc3ccc(OCc4ccccc4)nc3)no2)c(N)n1 [Example 226, N-(6-Amino-5-(3-(6-benzyloxy-pyridin-3-ylmethyl)-isoxazol-5-yl)-pyridin-2-yl)-2-methoxy-acetamide] | – | – | 0.39 (≈ 0.875 µM) | 0.39 (≈ 0.875 µM) | –
CCOC(=O)CNc1ccc(-c2cc(Cc3ccc(OCc4ccccc4)nc3)no2)c(N)n1 [Example 227, (6-Amino-5-(3-(6-benzyloxy-pyridin-3-ylmethyl)-isoxazol-5-yl)-pyridin-2-ylamino)-acetic acid ethyl ester] | – | – | 1.56 (≈ 3.39 µM) | 1.56 (≈ 3.39 µM) | –
CN(C)c1ncccc1-c1cc(Cc2ccc(OCc3ccccc3)cc2)no1 [Example 228, (3-(3-(4-Benzyloxy-benzyl)-isoxazol-5-yl)-pyridin-2-yl)-dimethyl-amine] | – | – | 0.78 (≈ 2.02 µM) | 0.78 (≈ 2.02 µM) | –

From patent US8158657B2, “Heterocycles substituted pyridine derivatives and antifungal agent containing thereof” (Eisai R&D Management Co., Ltd., priority 2005, dated 2012)
